By IC50 is commonly meant the concentration at which inhibition is half-maximal. The Ki is a dissociation constant, usually derived from enzyme kinetics or from competition with a known ligand.

We go through 24 compounds from US7998965B2, “Glutamate aggrecanase inhibitors” (Wyeth LLC, priority 2005, dated 2011).

Each structure is given as a SMILES string. Read-outs that look alike come from different tables or passages of the source.

The target of experiment [1] is T1, purified recombinant human Aggrecanase-2 (Ag2t-Phe628-Strep) (Homo sapiens, UniProt Q9UNA0).
T1 construct: the form used is denoted as Ag2t-Phe628-Strep (MW=41,737)
T1 sequence (Q9UNA0 262-628): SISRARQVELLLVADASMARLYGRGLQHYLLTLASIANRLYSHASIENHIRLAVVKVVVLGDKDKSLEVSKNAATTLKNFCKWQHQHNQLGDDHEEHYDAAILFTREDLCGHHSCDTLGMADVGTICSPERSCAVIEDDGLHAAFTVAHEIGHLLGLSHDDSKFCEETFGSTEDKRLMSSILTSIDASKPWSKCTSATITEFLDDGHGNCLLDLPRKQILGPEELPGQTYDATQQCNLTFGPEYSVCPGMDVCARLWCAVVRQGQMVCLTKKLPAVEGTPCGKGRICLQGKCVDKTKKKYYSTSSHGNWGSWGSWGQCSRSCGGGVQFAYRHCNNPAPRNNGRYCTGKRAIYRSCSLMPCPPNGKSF
As to the kind of experiment: In vitro fluorescence screen for Aggrecanase-2 inhibitors. It counts as biochemical. Conditions: for IC50: read-out: Agg 2 IC50; for Ki: read-out: Ki Agg2.

The target in experiment [2] is T2, purified recombinant human Aggrecanase-1 (rAgg1) (Homo sapiens, UniProt O75173).
T2 sequence (O75173 213-837): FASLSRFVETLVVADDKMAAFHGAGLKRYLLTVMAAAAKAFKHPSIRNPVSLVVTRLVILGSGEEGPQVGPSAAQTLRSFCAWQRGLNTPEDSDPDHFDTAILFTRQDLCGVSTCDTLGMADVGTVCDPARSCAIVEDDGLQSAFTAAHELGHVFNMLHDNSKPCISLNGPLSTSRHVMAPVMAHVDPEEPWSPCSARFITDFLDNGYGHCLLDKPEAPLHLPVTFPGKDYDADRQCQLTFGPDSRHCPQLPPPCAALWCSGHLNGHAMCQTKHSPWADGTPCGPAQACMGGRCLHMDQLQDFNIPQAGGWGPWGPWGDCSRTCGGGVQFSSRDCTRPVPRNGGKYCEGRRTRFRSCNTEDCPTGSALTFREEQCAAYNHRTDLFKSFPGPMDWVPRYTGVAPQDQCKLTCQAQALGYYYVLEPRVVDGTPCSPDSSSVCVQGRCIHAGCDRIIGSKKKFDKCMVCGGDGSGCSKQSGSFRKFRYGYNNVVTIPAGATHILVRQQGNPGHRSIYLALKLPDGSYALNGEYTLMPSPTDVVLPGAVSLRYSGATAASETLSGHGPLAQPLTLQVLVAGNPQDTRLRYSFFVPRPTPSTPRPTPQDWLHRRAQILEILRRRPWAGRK
Briefly: In vitro fluorescence screen for Aggrecanase-1 inhibitors. In kind it is biochemical. On the set-up: Agg1 % at concentration: scale not given here. Particulars: for IC50: read-out: Agg1 IC50; for Ki: read-out: Ki Agg1.

[3] abbreviates: read-out: Agg 2 % at concentration.

As for `COc1cccc(COc2ccc(-c3ccc(C(=O)N[C@@H](CCC(=O)O)C(=O)NCc4cc(OC)c(OC)c(OC)c4)cc3)cc2)c1` [Example 19H, N^2-({4′-[(3-methoxybenzyl)oxy]biphenyl-4-yl}carbonyl)-N-(3,4,5-trimethoxybenzyl)-L-α-glutamine], the IC50 came out at 158 nM in experiment [1] (Table 2) and 69 nM in experiment [2] (Table 2).
As for `CC(C)(Cc1ccccc1)NC(=O)[C@H](CCC(=O)O)NC(=O)c1ccc(-c2ccccc2)o1` [N-(1,1-dimethyl-2-phenylethyl)-N^2-(5-phenyl-2-furoyl)-L-α-glutamine], the “Agg 2 % at concentration” value in experiment [1] (Table 3, at 25000 (nM)) turned out to be 28%. The “Agg1 % at concentration” value in experiment [2] (Table 3, at 8300 (nM)) was 30%.
With `CC(C)(Cc1ccccc1)NC(=O)[C@H](CCC(=O)O)NC(=O)c1ccc(-c2nccs2)cc1` [N-(1,1-dimethyl-2-phenylethyl)-N^2-[4-(1,3-thiazol-2-yl)benzoyl]-L-α-glutamine], the inhibition at 25 µM in experiment [1] (setting [3]) is 62%. Also, the IC50 in experiment [2] (Table 3) is 270 nM.
Take `CC(C)(Cc1ccccc1)NC(=O)[C@H](CCC(=O)O)NC(=O)c1ccc(-c2cccs2)cc1` [N-(1,1-dimethyl-2-phenylethyl)-N^2-[4-(2-thienyl)benzoyl]-L-α-glutamine]: the IC50 was 60 to 200 nM in experiment [1] (Table 3) and under 30 nM in experiment [2] (Table 3). Besides, the Ki is 38 nM in experiment [1] (Table 3) and under 3 nM in experiment [2] (Table 3).
Regarding `CC(C)(Cc1ccccc1)NC(=O)[C@H](CCC(=O)O)NC(=O)c1ccc(-c2ccc(C=O)s2)cc1` [N-(1,1-dimethyl-2-phenylethyl)-N^2-[4-(5-formyl-2-thienyl)benzoyl]-L-α-glutamine], the results for the half-maximal inhibitory concentration (IC50) in experiment [1] (Table 3) and in experiment [2] (Table 3) were 500 nM and under 30 nM, respectively.
As to `CC(C)(Cc1ccccc1)NC(=O)[C@H](CCC(=O)O)NC(=O)c1ccc(-c2cccnc2)s1` [N-(1,1-dimethyl-2-phenylethyl)-N^2-[(5-pyridin-3-yl-2-thienyl)carbonyl]-L-α-glutamine], the IC50 in experiment [1] (Table 3) came out at 7200 nM. In experiment [2] (Table 3, at 70 (nM)), the “Agg1 % at concentration” value is 57% 70.
As to `CC(C)(Cc1ccccc1)NC(=O)[C@H](CCC(=O)O)NC(=O)c1ccc(-c2ccncc2)s1` [N-(1,1-dimethyl-2-phenylethyl)-N^2-[(5-pyridin-4-yl-2-thienyl)carbonyl]-L-α-glutamine], the IC50 in experiment [1] (Table 3) was 3300 nM; in experiment [2] (Table 3), under 30 nM.
The corresponding values for `CC(C)(Cc1ccccc1)NC(=O)[C@H](CCC(=O)O)NC(=O)c1ccc(-c2ccccc2)nc1` [N-(1,1-dimethyl-2-phenylethyl)-N^2-[(6-phenylpyridin-3-yl)carbonyl]-L-α-glutamine] are 700 nM and 100 nM.
For the compound `COc1cccc(-c2ccc(C(=O)N[C@@H](CCC(=O)O)C(=O)NC(C)(C)Cc3ccccc3)s2)c1` [N-(1,1-dimethyl-2-phenylethyl)-N^2-{[5-(3-methoxyphenyl)-2-thienyl]carbonyl}-L-α-glutamine], the figures for the half-maximal inhibitory concentration (IC50) in experiment [1] (Table 3) and in experiment [2] (Table 3) were 70 to 200 nM and under 30 nM, respectively. For the same compound, the Ki is 151 nM in experiment [1] (Table 3) and under 3 nM in experiment [2] (Table 3).
In the case of `CC(C)(Cc1ccc(Cl)cc1)NC(=O)[C@H](CCC(=O)O)NC(=O)c1ccc(-c2ccccc2)o1` [N-[2-(4-chlorophenyl)-1,1-dimethylethyl]-N^2-(5-phenyl-2-furoyl)-L-α-glutamine], the “Agg 2 % at concentration” value in experiment [1] (Table 3, at 50000 (nM)) was 50%. Moreover, the “Agg1 % at concentration” value in experiment [2] (Table 3, at 16700 (nM)) worked out at 60%.
As to `CC(C)(Cc1ccc(Cl)cc1)NC(=O)[C@H](CCC(=O)O)NC(=O)c1cccc(-c2cccs2)c1` [N-[2-(4-chlorophenyl)-1,1-dimethylethyl]-N^2-[3-(2-thienyl)benzoyl]-L-α-glutamine], the “Agg 2 % at concentration” value in experiment [1] (Table 3, at 25000 (nM)) came out at 10%. Also, the “Agg1 % at concentration” value in experiment [2] (Table 3, at 25000 (nM)) is recorded as 16%.
Take `CC(C)(Cc1ccc(Cl)cc1)NC(=O)[C@H](CCC(=O)O)NC(=O)c1ccc(-c2nccs2)cc1` [N-[2-(4-chlorophenyl)-1,1-dimethylethyl]-N^2-[4-(1,3-thiazol-2-yl)benzoyl]-L-α-glutamine]: the inhibition at 2.5 µM in experiment [1] (setting [3]) was determined as 50%. Further, in experiment [2] (Table 3), the IC50 stood at 1200 nM.
`CC(C)(Cc1ccc(Cl)cc1)NC(=O)[C@H](CCC(=O)O)NC(=O)c1ccc(-c2ccc3c(c2)OCC3)cc1` [N-[2-(4-chlorophenyl)-1,1-dimethylethyl]-N^2-[4-(2,3-dihydro-1-benzofuran-6-yl)benzoyl]-L-α-glutamine]: the IC50 in experiment [1] (Table 3) lay in the range of 90 to 270 nM. Also, in experiment [2] (Table 3, at 200 (nM)), the “Agg1 % at concentration” value turned out to be 65%.
For `CC(C)(Cc1ccc(Cl)cc1)NC(=O)[C@H](CCC(=O)O)NC(=O)c1ccc(-c2ccc(Cl)s2)cc1` [N-[2-(4-chlorophenyl)-1,1-dimethylethyl]-N^2-[4-(5-chloro-2-thienyl)benzoyl]-L-α-glutamine], the IC50 in experiment [1] (Table 3) was 70 to 200 nM; in experiment [2] (Table 3), under 30 nM. For the same compound, the inhibitory constant (Ki) in experiment [1] (Table 3) was 51 nM; in experiment [2] (Table 3), 5.4 nM.
As for `CC(C)(Cc1ccc(Cl)cc1)NC(=O)[C@H](CCC(=O)O)NC(=O)c1ccc(-c2ccc(C=O)s2)cc1` [N-[2-(4-chlorophenyl)-1,1-dimethylethyl]-N^2-[4-(5-formyl-2-thienyl)benzoyl]-L-α-glutamine], the IC50 in experiment [1] (Table 3) was 900 nM; in experiment [2] (Table 3), under 30 nM.
For `CC(C)(Cc1ccc(Cl)cc1)NC(=O)[C@H](CCC(=O)O)NC(=O)c1sccc1-c1ccccc1` [N-[2-(4-chlorophenyl)-1,1-dimethylethyl]-N^2-[(3-phenyl-2-thienyl)carbonyl]-L-α-glutamine], in that order: over 100000 nM and over 25000 nM.
Take `CC(C)(Cc1ccc(Cl)cc1)NC(=O)[C@H](CCC(=O)O)NC(=O)c1ccc(-c2ccncc2)s1` [N-[2-(4-chlorophenyl)-1,1-dimethylethyl]-N^2-[(5-pyridin-4-yl-2-thienyl)carbonyl]-L-α-glutamine]: the results for the IC50 in experiment [1] (Table 3) and in experiment [2] (Table 3) were 3400 nM and 40 nM, respectively.
The corresponding values for `CC(C)(Cc1ccc(Cl)cc1)NC(=O)[C@H](CCC(=O)O)NC(=O)c1ccc(-c2ccc(Cl)cc2)s1` [N-[2-(4-chlorophenyl)-1,1-dimethylethyl]-N^2-{[5-(4-chlorophenyl)-2-thienyl]carbonyl}-L-α-glutamine] are over 300 nM and under 30 nM.
In the case of `CC(C)(Cc1ccc(Cl)cc1)NC(=O)[C@H](CCC(=O)O)NC(=O)c1ccc(-c2ccc(F)cc2)s1` [N-[2-(4-chlorophenyl)-1,1-dimethylethyl]-N^2-{[5-(4-fluorophenyl)-2-thienyl]carbonyl}-L-α-glutamine], in experiment [1] (Table 3), the IC50 fell in the range of 30 to 100 nM and the Ki was found to be 87 nM. In addition, in experiment [2] (Table 3), the IC50 was under 30 nM and the Ki was under 3 nM.
The corresponding values for `CC(C)(Cc1ccc(Cl)cc1)NC(=O)[C@H](CCC(=O)O)NC(=O)c1ccc(-c2ccc(Cl)s2)nc1` [N-[2-(4-chlorophenyl)-1,1-dimethylethyl]-N^2-{[6-(5-chloro-2-thienyl)pyridin-3-yl]carbonyl}-L-α-glutamine] are 100 to 300 nM, 526 nM, 20 to 70 nM and 40.6 nM.
For `CC(C)(Cc1ccc(F)cc1)NC(=O)[C@H](CCC(=O)O)NC(=O)c1ccc(-c2ccccc2)s1` [N-[2-(4-fluorophenyl)-1,1-dimethylethyl]-N^2-[(5-phenyl-2-thienyl)carbonyl]-L-α-glutamine], in that order: 60 to 200 nM, 79 nM, under 30 nM and 3.8 nM.
As to `CC(C)(Cc1ccc(F)cc1)NC(=O)[C@H](CCC(=O)O)NC(=O)c1ccc(-c2ccccc2)nc1` [N-[2-(4-fluorophenyl)-1,1-dimethylethyl]-N^2-[(6-phenylpyridin-3-yl)carbonyl]-L-α-glutamine], the values for the IC50 in experiment [1] (Table 3) and in experiment [2] (Table 3) were 1000 nM and 50 nM, respectively.
As to `COc1cccc(-c2ccc(C(=O)N[C@@H](CCC(=O)O)C(=O)NC(C)(C)Cc3ccc(F)cc3)s2)c1` [N-[2-(4-fluorophenyl)-1,1-dimethylethyl]-N^2-{[5-(3-methoxyphenyl)-2-thienyl]carbonyl}-L-α-glutamine], in experiment [1] (Table 3), the IC50 was in the range of 100 to 300 nM and the Ki came out at 143 nM. Further, in experiment [2] (Table 3), the 50% inhibitory concentration (IC50) is under 30 nM and the Ki was 6.2 nM.
On to `COc1cccc(-c2ccc(C(=O)N[C@@H](CCC(=O)O)C(=O)NC(C)(C)Cc3ccc(F)cc3)cn2)c1` [N-[2-(4-fluorophenyl)-1,1-dimethylethyl]-N^2-{[6-(3-methoxyphenyl)pyridin-3-yl]carbonyl}-L-α-glutamine], for which the concentration for half-maximal inhibition (IC50) in experiment [1] (Table 3) was 5200 nM; in experiment [2] (Table 3), 140 nM.
